Structures can show the parent of a compound that is named as a salt.

In the test the target is T1, Mouse ER α-glucosidase II (Mus musculus, UniProt Q8BHN3).
T1 construct: gene Ganab; with Glucosidase 2 subunit beta
T1 sequence (Q8BHN3 33-944): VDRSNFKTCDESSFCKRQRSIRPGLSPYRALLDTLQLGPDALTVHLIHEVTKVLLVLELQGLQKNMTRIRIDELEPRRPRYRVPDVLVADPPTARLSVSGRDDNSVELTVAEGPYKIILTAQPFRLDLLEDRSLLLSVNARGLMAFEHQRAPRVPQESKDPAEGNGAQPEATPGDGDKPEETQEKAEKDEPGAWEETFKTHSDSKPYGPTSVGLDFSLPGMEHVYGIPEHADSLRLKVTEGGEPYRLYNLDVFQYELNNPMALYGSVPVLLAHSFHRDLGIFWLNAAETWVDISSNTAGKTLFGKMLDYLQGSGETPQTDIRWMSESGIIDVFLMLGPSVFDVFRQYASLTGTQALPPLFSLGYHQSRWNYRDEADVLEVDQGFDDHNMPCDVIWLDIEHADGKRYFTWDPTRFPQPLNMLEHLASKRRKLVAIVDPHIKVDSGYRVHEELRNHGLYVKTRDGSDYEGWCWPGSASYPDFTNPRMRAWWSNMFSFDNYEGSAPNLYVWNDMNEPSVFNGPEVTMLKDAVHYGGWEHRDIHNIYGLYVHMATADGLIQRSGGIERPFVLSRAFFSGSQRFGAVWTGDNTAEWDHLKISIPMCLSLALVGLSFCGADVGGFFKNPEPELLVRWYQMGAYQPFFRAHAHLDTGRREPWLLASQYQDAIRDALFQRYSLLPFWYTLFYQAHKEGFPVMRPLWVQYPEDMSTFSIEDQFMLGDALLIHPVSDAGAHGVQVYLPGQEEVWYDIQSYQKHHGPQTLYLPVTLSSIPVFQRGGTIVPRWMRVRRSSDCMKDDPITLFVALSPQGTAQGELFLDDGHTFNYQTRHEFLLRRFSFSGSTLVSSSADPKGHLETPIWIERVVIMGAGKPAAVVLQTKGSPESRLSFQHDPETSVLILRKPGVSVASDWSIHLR
T1 sequence (O08795 15-521 partner): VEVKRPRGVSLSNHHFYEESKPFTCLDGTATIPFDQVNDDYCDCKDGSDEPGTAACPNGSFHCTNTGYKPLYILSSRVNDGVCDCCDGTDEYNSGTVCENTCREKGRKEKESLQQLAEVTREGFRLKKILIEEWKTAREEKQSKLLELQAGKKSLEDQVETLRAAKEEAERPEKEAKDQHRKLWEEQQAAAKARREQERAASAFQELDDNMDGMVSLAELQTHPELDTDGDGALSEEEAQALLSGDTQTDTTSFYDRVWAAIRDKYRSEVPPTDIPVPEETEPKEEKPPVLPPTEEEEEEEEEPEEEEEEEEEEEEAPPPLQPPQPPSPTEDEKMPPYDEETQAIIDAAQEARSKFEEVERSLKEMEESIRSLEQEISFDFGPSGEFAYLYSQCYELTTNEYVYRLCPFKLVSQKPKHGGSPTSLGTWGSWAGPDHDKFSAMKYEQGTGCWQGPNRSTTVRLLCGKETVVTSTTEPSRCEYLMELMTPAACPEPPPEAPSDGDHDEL
The test is described as follows: enzyme inhibition assay, purified enzyme. To be noted: read-out: IC50 ^a / UV-4B. In kind it is biochemical. An excerpt: enzyme inhibition assay, purified enzyme on Mouse ER α-glucosidase II

In the case of `COCCCCCCCCCN1C[C@H](O)[C@@H](O)[C@H](O)[C@H]1CO` [UV-4B, N-(9′-methoxynonyl)-1-deoxynojirimycin hydrochloride], the IC50 amounted to 1800 nM.
